Experimental data as given in ChEMBL document CHEMBL1139682, “Synthesis and biological evaluation of technetium-99m-labeled deoxyglucose derivatives as imaging agents for tumor” (Bioorg Med Chem Lett, 2006).

Tests used:
[1] = Biodistribution in stomach of TA2 mouse bearing MA891 xenograft after 4 hrs; assay type: ADME, organism-based; details: read-out: Drug uptake
[2] = Biodistribution in tumor of TA2 mouse bearing MA891 xenograft after 30 mins; assay type: ADME, organism-based; details: read-out: Drug uptake
[3] = Biodistribution in heart of TA2 mouse bearing MA891 xenograft after 4 hrs; assay type: ADME, organism-based; details: read-out: Drug uptake
[4] = Biodistribution in blood of TA2 mouse bearing MA891 xenograft after 30 mins; assay type: ADME, organism-based; details: read-out: Drug uptake
[5] = Biodistribution in lung of TA2 mouse bearing MA891 xenograft after 4 hrs; assay type: ADME, organism-based; details: read-out: Drug uptake
[6] = Partition coefficient, log P of the compound; assay type: physicochemical; details: octanol/water
[7] = Biodistribution in lung of TA2 mouse bearing MA891 xenograft after 30 mins; assay type: ADME, organism-based; details: read-out: Drug uptake
[8] = Biodistribution in intestine of TA2 mouse bearing MA891 xenograft after 2 hrs; assay type: ADME, organism-based; details: read-out: Drug uptake
[9] = Biodistribution in kidney of TA2 mouse bearing MA891 xenograft after 4 hrs; assay type: ADME, organism-based; details: read-out: Drug uptake
[10] = Ratio of uptake in tumor to muscle of TA2 mouse bearing MA891 xenograft after 30 mins; assay type: ADME; details: in vivo, 0.5 h
[11] = Ratio of uptake in tumor to blood of TA2 mouse bearing MA891 xenograft after 2 hrs; assay type: ADME
[12] = Biodistribution in spleen of TA2 mouse bearing MA891 xenograft after 2 hrs; assay type: ADME, organism-based; details: read-out: Drug uptake
[13] = Biodistribution in heart of TA2 mouse bearing MA891 xenograft after 2 hrs; assay type: ADME, organism-based; details: read-out: Drug uptake
[14] = Biodistribution in blood of TA2 mouse bearing MA891 xenograft after 2 hrs; assay type: ADME, organism-based; details: read-out: Drug uptake
[15] = Ratio of uptake in tumor to muscle of TA2 mouse bearing MA891 xenograft after 2 hrs; assay type: ADME; details: in vivo
[16] = Biodistribution in muscle of TA2 mouse bearing MA891 xenograft after 4 hrs; assay type: ADME, organism-based, Muscle tissue; details: read-out: Drug uptake
[17] = Biodistribution in spleen of TA2 mouse bearing MA891 xenograft after 30 mins; assay type: ADME, organism-based; details: read-out: Drug uptake
[18] = Biodistribution in kidney of TA2 mouse bearing MA891 xenograft after 2 hrs; assay type: ADME, organism-based; details: read-out: Drug uptake
[19] = Biodistribution in stomach of TA2 mouse bearing MA891 xenograft after 30 mins; assay type: ADME, organism-based; details: read-out: Drug uptake
[20] = Biodistribution in tumor of TA2 mouse bearing MA891 xenograft after 2 hrs; assay type: ADME, organism-based; details: read-out: Drug uptake
[21] = Biodistribution in liver of TA2 mouse bearing MA891 xenograft after 30 mins; assay type: ADME, organism-based; details: read-out: Drug uptake
[22] = Biodistribution in brain of TA2 mouse bearing MA891 xenograft after 30 mins; assay type: ADME, organism-based; details: read-out: Drug uptake
[23] = Biodistribution in spleen of TA2 mouse bearing MA891 xenograft after 4 hrs; assay type: ADME, organism-based; details: read-out: Drug uptake
[24] = Biodistribution in heart of TA2 mouse bearing MA891 xenograft after 30 mins; assay type: ADME, organism-based; details: read-out: Drug uptake
[25] = Biodistribution in liver of TA2 mouse bearing MA891 xenograft after 2 hrs; assay type: ADME, organism-based; details: read-out: Drug uptake
[26] = Biodistribution in lung of TA2 mouse bearing MA891 xenograft after 2 hrs; assay type: ADME, organism-based; details: read-out: Drug uptake
[27] = Biodistribution in liver of TA2 mouse bearing MA891 xenograft after 4 hrs; assay type: ADME, organism-based; details: read-out: Drug uptake
[28] = Ratio of uptake in tumor to muscle of TA2 mouse bearing MA891 xenograft after 4 hrs; assay type: ADME; details: in vivo
[29] = Biodistribution in brain of TA2 mouse bearing MA891 xenograft after 2 hrs; assay type: ADME, organism-based; details: read-out: Drug uptake
[30] = Biodistribution in blood of TA2 mouse bearing MA891 xenograft after 4 hrs; assay type: ADME, organism-based; details: read-out: Drug uptake
[31] = Biodistribution in intestine of TA2 mouse bearing MA891 xenograft after 4 hrs; assay type: ADME, organism-based; details: read-out: Drug uptake
[32] = Ratio of uptake in tumor to […] of TA2 mouse bearing MA891 xenograft after 30 mins; assay type: ADME; details: in vivo, 0.5 h
[33] = Biodistribution in muscle of TA2 mouse bearing MA891 xenograft after 30 mins; assay type: ADME, organism-based, Muscle tissue; details: read-out: Drug uptake
[34] = Ratio of uptake in tumor to […] of TA2 mouse bearing MA891 xenograft after 4 hrs; assay type: ADME; details: in vivo
[35] = Biodistribution in brain of TA2 mouse bearing MA891 xenograft after 4 hrs; assay type: ADME, organism-based; details: read-out: Drug uptake
[36] = Biodistribution in intestine of TA2 mouse bearing MA891 xenograft after 30 mins; assay type: ADME, organism-based; details: read-out: Drug uptake
[37] = Biodistribution in kidney of TA2 mouse bearing MA891 xenograft after 30 mins; assay type: ADME, organism-based; details: read-out: Drug uptake
[38] = Biodistribution in tumor of TA2 mouse bearing MA891 xenograft after 4 hrs; assay type: ADME, organism-based; details: read-out: Drug uptake
[39] = Biodistribution in stomach of TA2 mouse bearing MA891 xenograft after 2 hrs; assay type: ADME, organism-based; details: read-out: Drug uptake
[40] = Biodistribution in muscle of TA2 mouse bearing MA891 xenograft after 2 hrs; assay type: ADME, organism-based, Muscle tissue; details: read-out: Drug uptake

Compound: CSCC(=O)NC1[C@H](O)O[C@H](CO)[C@@H](O)[C@@H]1O (stereo not given in full)
- tissue uptake at 4 h [1]: 1.41 %ID/g
- tissue uptake at 0.5 h [2]: 1.53 %ID/g
- tissue uptake at 4 h [3]: 0.38 %ID/g
- tissue uptake at 0.5 h [4]: 3.32 %ID/g
- tissue uptake at 4 h [5]: 0.98 %ID/g
- logP [6]: -2.92
- tissue uptake at 0.5 h [7]: 2.73 %ID/g
- tissue uptake at 2 h [8]: 4.07 %ID/g
- tissue uptake at 4 h [9]: 13.2 %ID/g
- Ratio [10]: 3.2
- Kp at 2 h [11]: 0.59
- tissue uptake at 2 h [12]: 1.36 %ID/g
- tissue uptake at 2 h [13]: 0.57 %ID/g
- tissue uptake at 2 h [14]: 2.22 %ID/g
- Ratio [15]: 2.85
- tissue uptake at 4 h [16]: 0.33 %ID/g
- tissue uptake at 0.5 h [17]: 1.81 %ID/g
- tissue uptake at 2 h [18]: 10.8 %ID/g
- tissue uptake at 0.5 h [19]: 3.69 %ID/g
- tissue uptake at 2 h [20]: 1.25 %ID/g
- tissue uptake at 0.5 h [21]: 5.9 %ID/g
- tissue uptake at 0.5 h [22]: 0.11 %ID/g
- tissue uptake at 4 h [23]: 1.6 %ID/g
- tissue uptake at 0.5 h [24]: 0.9 %ID/g
- tissue uptake at 2 h [25]: 4.75 %ID/g
- tissue uptake at 2 h [26]: 1.48 %ID/g
- tissue uptake at 4 h [27]: 4.18 %ID/g
- Ratio [28]: 3.29
- tissue uptake at 2 h [29]: 0.07 %ID/g
- tissue uptake at 4 h [30]: 1.29 %ID/g
- tissue uptake at 4 h [31]: 1.29 %ID/g
- Ratio [32]: 0.47
- tissue uptake at 0.5 h [33]: 0.51 %ID/g
- Ratio [34]: 0.82
- tissue uptake at 4 h [35]: 0.04 %ID/g
- tissue uptake at 0.5 h [36]: 2.24 %ID/g
- tissue uptake at 0.5 h [37]: 8.8 %ID/g
- tissue uptake at 4 h [38]: 1.06 %ID/g
- tissue uptake at 2 h [39]: 3.17 %ID/g
- tissue uptake at 2 h [40]: 0.45 %ID/g
